In patent US11691992B2 (Anacor Pharmaceuticals, Inc., priority 2017, dated 2023) one finds IC50 data, which are given here for 10 compounds.

In test [1] the test system is IL3000 T. congolense (drug sensitive) strain. The test can be described thus: In vitro Alamar Blue 72 h drug sensitivity assay for T. congolense. It is filed as cell-based. The following applies: Trypanosoma congolense; bloodstream form, 69 h + 3 h resazurin, 34° C.; classes A-C; read-out: IC50: I Org. Growth T. congolense IL-3000, 3 d. An outline of the steps:
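Bloodstream-form trypanosomes in HMI medium with 20% bovine serum, exposed to compound for 69 h at 34 °C, 5% CO2, then resazurin for 3 h more. Fluorescence read at 536/588 nm. IC50 from 11-point sigmoidal dose-response curves, at least three independent runs.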
(In general: Alamar Blue is a resazurin reagent that responds to reducing activity.)

For test [2], the system named is promastigote forms of L. major. The test can be described thus: Leishmania major promastigote growth inhibition assay (Alamar Blue). In kind it is cell-based. The conditions noted are these: promastigotes, 44 hours + 4 hours Alamar Blue, read-out: IC50: I Org. promastigote Growth L. major, 2 d. Summed up: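 Early-log L. major promastigotes (5,000/well) in Schneider's medium with 20% FBS incubated with compound 44 h at 28° C; drug solutions in DMSO were 10,000 or 1,000 ng/ml before dispensing. Alamar Blue added 4 h, fluorescence at 560/590 nm gives percent growth inhibition; IC50 determined for compounds inhibiting ≥50%.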

One may read the IC50 as the concentration that gives 50% inhibition. `COc1ccc(-n2cc(C(=O)Nc3ccc4c(c3)B(O)OC4)nn2)cc1` [Example 21, N-(1-hydroxy-1,3-dihydrobenzo[c][1,2]oxaborol-6-yl)-1-(4-methoxyphenyl)-1H-1,2,3-triazole-4-carboxamide]: the half-inhibitory concentration (IC50) was less than 100 nM in test [1] and less than 600 nM in test [2].

For the compound `COc1ccc(-n2cc(C(=O)Nc3ccc4c(c3)B(O)OC4C)nn2)cc1` (centres unmarked) [Example 22, N-(1-hydroxy-3-methyl-1,3-dihydrobenzo[c][1,2]oxaborol-6-yl)-1-(4-methoxyphenyl)-1H-1,2,3-triazole-4-carboxamide], the IC50 was 100 to 300 nM in test [1] and less than 600 nM in test [2].

Regarding `CC1OB(O)c2cc(NC(=O)c3cn(-c4ccccn4)nn3)ccc21` (centres unmarked) [Example 23, N-(1-hydroxy-3-methyl-1,3-dihydrobenzo[c][1,2]oxaborol-6-yl)-1-(pyridin-2-yl)-1H-1,2,3-triazole-4-carboxamide], the concentration for half-maximal inhibition (IC50) in test [1] is less than 100 nM; in test [2] it was less than 600 nM.

As for `Cc1c(C(=O)Nc2ccc3c(c2)B(O)OC3C)nnn1-c1ccccn1` (centres unmarked) [Example 24, N-(1-hydroxy-3-methyl-1,3-dihydrobenzo[c][1,2]oxaborol-6-yl)-5-methyl-1-(pyridin-2-yl)-1H-1,2,3-triazole-4-carboxamide], the IC50 in test [1] is less than 100 nM; in test [2], 600 to 2500 nM.

Regarding `COc1ccc(-n2cc(C(=O)Nc3ccc4c(c3)B(O)OC43CCC3)nn2)cc1` [Example 25, N-(1-hydroxy-1H-spiro[benzo[c][1,2]oxaborole-3,1′-cyclobutan]-6-yl)-1-(4-methoxyphenyl)-1H-1,2,3-triazole-4-carboxamide], the 50% inhibitory concentration (IC50) is 310 to 100000 nM in test [1] and 2510 to 20000 nM in test [2].

Turning to `O=C(Nc1ccc2c(c1)B(O)OC21CCC1)c1cn(-c2ccccn2)nn1` [Example 26, N-(1-hydroxy-1H-spiro[benzo[c][1,2]oxaborole-3,1′-cyclobutan]-6-yl)-1-(pyridin-2-yl)-1H-1,2,3-triazole-4-carboxamide], the 50% inhibitory concentration (IC50) in test [1] lay in the range of 310 to 100000 nM; in test [2] it was 2510 to 20000 nM.

Turning to `O=C(Nc1ccc2c(c1)B(O)OC2)c1cn(-c2ccccn2)nn1` [Example 61, N-(1-hydroxy-1,3-dihydrobenzo[c][1,2]oxaborol-6-yl)-1-(pyridin-2-yl)-1H-1,2,3-triazole-4-carboxamide], the concentration for half-maximal inhibition (IC50) in test [1] was less than 100 nM; in test [2], less than 600 nM.

For `Cc1c(C(=O)Nc2ccc3c(c2)B(O)OC3)nnn1-c1ccccn1` [Example 84, N-(1-hydroxy-1,3-dihydrobenzo[c][1,2]oxaborol-6-yl)-5-methyl-1-(pyridin-2-yl)-1H-1,2,3-triazole-4-carboxamide], the values for the 50% inhibitory concentration (IC50) in test [1] and in test [2] were less than 100 nM and less than 600 nM, respectively.

For the compound `COc1ccc(-n2nnc(C(=O)Nc3ccc4c(c3)B(O)OC4)c2C)cc1` [Example 91, N-(1-hydroxy-1,3-dihydrobenzo[c][1,2]oxaborol-6-yl)-1-(4-methoxyphenyl)-5-methyl-1H-1,2,3-triazole-4-carboxamide], the values for the 50% inhibitory concentration (IC50) in test [1] and in test [2] were 100 to 300 nM and less than 600 nM, respectively.

`Cc1c(C(=O)Nc2ccc3c(c2)B(O)OC3)nnn1-c1cccnc1` [Example 93, N-(1-hydroxy-1,3-dihydrobenzo[c][1,2]oxaborol-6-yl)-5-methyl-1-(pyridin-3-yl)-1H-1,2,3-triazole-4-carboxamide]: the IC50 in test [1] was in the range of 100 to 300 nM; in test [2] it was 2510 to 20000 nM.
